{"source": "patent US12202835B2", "about": "“Substituted aromatic ring-linked dioxinoquinazolines and dioxinoquinolines as kinase inhibitors” (BEIJING SCITECH-MQ PHARMACEUTICALS LIMITED, priority 2018, dated 2025)", "type_in_all_cases": "biochemical", "key": {"TRKA kinase": {"target": "TRKA kinase (Homo sapiens (Human), UniProt P04629)", "sequence (P04629 33-796)": "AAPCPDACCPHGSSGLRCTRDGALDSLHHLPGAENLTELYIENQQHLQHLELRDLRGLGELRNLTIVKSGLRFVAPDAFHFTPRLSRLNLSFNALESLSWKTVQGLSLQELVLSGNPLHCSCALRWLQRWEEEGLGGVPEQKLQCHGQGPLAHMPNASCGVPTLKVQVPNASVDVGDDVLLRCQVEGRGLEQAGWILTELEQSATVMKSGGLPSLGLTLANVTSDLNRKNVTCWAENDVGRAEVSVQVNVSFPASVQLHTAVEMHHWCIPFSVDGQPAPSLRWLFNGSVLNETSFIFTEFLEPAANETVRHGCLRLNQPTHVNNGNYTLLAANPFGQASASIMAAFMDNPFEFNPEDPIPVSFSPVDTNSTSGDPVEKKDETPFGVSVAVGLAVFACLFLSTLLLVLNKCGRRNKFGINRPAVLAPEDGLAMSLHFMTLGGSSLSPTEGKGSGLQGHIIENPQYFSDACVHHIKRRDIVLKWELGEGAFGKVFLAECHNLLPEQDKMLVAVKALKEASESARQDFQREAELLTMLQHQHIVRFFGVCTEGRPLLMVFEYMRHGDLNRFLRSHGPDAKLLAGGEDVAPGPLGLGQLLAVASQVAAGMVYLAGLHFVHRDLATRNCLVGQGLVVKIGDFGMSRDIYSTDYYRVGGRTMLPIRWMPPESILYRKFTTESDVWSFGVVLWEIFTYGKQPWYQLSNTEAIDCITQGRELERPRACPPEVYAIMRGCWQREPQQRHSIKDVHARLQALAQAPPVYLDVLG", "test": "Assay of small molecular compounds for inhibiting the activity of TRKA kinase (LANCE TR-FRET)", "method_in_brief": "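LANCE TR-FRET with ULight-TK peptide; compounds pre-incubated 5 min with TRKA (2× solution 2 nM), then substrate/ATP added (4× mix: 400 nM peptide, 40 μM ATP). Reaction 60 min at room temperature in dark, 1% DMSO final; stopped, detection developed 60 min, signal read.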"}, "MER kinase": {"target": "MER kinase (Homo sapiens (Human), UniProt Q12866)", "sequence (Q12866 21-999)": "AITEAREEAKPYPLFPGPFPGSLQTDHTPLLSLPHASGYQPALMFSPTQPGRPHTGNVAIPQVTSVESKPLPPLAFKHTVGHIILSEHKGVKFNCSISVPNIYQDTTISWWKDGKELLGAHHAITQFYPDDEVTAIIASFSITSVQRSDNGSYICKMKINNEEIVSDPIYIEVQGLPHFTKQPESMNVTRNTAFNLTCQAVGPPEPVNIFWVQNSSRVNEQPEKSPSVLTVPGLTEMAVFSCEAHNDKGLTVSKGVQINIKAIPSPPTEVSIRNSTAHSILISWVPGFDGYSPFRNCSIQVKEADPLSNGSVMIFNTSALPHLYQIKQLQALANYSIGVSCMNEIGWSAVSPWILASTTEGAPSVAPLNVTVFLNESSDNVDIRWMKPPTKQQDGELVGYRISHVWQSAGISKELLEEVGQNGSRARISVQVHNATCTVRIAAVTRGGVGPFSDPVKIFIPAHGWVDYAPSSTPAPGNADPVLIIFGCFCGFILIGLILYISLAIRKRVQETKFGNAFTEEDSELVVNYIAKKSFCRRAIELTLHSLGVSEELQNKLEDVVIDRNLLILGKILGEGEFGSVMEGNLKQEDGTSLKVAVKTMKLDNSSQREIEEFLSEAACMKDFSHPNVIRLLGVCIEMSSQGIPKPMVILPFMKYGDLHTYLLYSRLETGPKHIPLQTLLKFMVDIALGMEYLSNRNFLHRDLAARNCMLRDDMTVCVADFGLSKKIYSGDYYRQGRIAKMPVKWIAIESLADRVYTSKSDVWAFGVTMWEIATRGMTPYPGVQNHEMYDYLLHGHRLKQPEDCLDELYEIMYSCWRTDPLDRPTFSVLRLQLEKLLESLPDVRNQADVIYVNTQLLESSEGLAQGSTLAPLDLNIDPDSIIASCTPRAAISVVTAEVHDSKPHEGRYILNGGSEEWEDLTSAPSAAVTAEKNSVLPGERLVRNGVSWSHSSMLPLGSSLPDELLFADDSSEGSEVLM", "test": "Assay of small molecular compounds for inhibiting the activity of MER kinase (LANCE TR-FRET)", "method_in_brief": "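MER kinase preincubated 5 min at RT with compound (11 points, 0.042-2500 nM final), then ULight-poly GT and ATP added (4× stocks 200 nM and 20 μM) for 60 min at RT, 1% DMSO. Phosphorylation detected by LANCE TR-FRET; IC50 from % inhibition versus controls.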"}, "VEGFR-2 kinase": {"target": "VEGFR-2 kinase (Homo sapiens (Human), UniProt P35968)", "sequence (P35968 20-1356)": "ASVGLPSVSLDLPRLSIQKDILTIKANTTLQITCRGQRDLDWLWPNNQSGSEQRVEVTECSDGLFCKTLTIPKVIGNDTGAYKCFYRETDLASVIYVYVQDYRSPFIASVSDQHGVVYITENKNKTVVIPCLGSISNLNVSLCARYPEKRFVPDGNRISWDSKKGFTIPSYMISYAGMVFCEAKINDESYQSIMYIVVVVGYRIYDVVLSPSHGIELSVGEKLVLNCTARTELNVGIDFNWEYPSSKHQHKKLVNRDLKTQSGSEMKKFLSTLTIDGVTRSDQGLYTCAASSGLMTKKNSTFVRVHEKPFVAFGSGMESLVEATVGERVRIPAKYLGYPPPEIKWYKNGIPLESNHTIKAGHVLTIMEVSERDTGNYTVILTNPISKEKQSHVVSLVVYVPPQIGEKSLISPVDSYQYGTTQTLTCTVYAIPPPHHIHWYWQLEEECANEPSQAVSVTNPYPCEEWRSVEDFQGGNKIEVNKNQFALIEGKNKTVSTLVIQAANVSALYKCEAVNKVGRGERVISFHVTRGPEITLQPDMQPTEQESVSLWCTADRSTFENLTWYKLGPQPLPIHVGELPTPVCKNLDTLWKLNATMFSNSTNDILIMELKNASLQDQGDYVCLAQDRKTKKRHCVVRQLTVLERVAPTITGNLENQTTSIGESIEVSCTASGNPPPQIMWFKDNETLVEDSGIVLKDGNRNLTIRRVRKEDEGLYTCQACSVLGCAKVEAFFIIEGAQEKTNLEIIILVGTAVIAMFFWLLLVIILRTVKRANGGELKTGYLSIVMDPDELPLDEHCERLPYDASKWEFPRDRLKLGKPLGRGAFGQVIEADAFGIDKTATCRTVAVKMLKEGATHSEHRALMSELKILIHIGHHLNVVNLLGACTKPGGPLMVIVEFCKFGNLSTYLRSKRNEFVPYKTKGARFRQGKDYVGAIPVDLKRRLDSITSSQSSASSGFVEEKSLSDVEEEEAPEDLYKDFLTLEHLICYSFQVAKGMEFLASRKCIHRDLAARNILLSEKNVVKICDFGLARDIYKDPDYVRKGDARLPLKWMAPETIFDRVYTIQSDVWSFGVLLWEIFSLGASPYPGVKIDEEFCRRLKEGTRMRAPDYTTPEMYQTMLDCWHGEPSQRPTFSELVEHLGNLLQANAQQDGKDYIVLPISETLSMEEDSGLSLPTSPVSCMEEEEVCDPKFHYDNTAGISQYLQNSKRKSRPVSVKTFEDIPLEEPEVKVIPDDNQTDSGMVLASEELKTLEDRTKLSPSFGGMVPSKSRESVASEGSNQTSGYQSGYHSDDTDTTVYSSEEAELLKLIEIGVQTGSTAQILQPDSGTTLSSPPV", "test": "Assay of small molecular compounds for inhibiting the activity of VEGFR-2 kinase (LANCE TR-FRET)", "settings": "read-out: VEGFR2 IC50", "method_in_brief": "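LANCE TR-FRET with human VEGFR-2 (2× stock 0.5 nM) preincubated 30 min with compound (final 2500 to 0.042 nM, 11-point 3-fold), then ULight-JAK-1 (Tyr1023) peptide/ATP added (4× stocks 200 nM/40 μM). Reaction 60 min room temperature, 4% DMSO; IC50 from inhibition-rate curve.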"}}, "data": [{"smiles": "CCOc1ccn(-c2ccc(F)cc2)c(=O)c1C(=O)Nc1ccc(Oc2ccnc3cc(OCCCN4CCC(C)(N)CC4)c4c(c23)OCCO4)c(F)c1", "note": "[Example 68, N-(4-((5-(3-(4-amino-4-methylpiperidin-1-yl)propoxy)-2,3-dihydro-[1,4]dioxino[2,3-f]quinolin-10-yl)oxy)-3-fluorophenyl)-4-ethoxy-1-(4-fluorophenyl)-2-oxo-1,2-dihydropyridine-3-carboxamide]", "values": [{"measurement": "IC50", "setting": "TRKA kinase", "result": "< 0.05", "unit": "µM"}, {"measurement": "IC50", "setting": "MER kinase", "result": "≤ 0.05", "unit": "µM"}, {"measurement": "IC50", "setting": "VEGFR-2 kinase", "result": "≤ 0.05", "unit": "µM"}]}, {"smiles": "CCOc1ccn(-c2ccc(F)cc2)c(=O)c1C(=O)Nc1ccc(Oc2ccnc3cc(OCCCN4CCC(C)(O)CC4)c4c(c23)OCCO4)c(F)c1", "note": "[Example 69, N-(4-((5-(3-(4-hydroxy-4-methylpiperidin-1-yl)propoxy)-2,3-dihydro-[1,4]dioxino[2,3-f]quinolin-10-yl)oxy)-3-fluorophenyl)-4-ethoxy-1-(4-fluorophenyl)-2-oxo-1,2-dihydropyridine-3-carboxamide]", "values": [{"measurement": "IC50", "setting": "TRKA kinase", "result": "< 0.05", "unit": "µM"}, {"measurement": "IC50", "setting": "MER kinase", "result": "≤ 0.05", "unit": "µM"}, {"measurement": "IC50", "setting": "VEGFR-2 kinase", "result": "≤ 0.05", "unit": "µM"}]}, {"smiles": "CCOc1ccn(-c2ccc(F)cc2)c(=O)c1C(=O)Nc1ccc(Oc2ccnc3cc(OCCCN(C)CCOC)c4c(c23)OCCO4)c(F)c1", "note": "[Example 70, N-(4-((5-(3-((2-methoxyethyl)(methyl)amino)propoxy)-2,3-dihydro-[1,4]dioxino[2,3-f]quinolin-10-yl)oxy)-3-fluorophenyl)-4-ethoxy-1-(4-fluorophenyl)-2-oxo-1,2-dihydropyridine-3-carboxamide]", "values": [{"measurement": "IC50", "setting": "TRKA kinase", "result": "< 0.05", "unit": "µM"}, {"measurement": "IC50", "setting": "MER kinase", "result": "≤ 0.05", "unit": "µM"}, {"measurement": "IC50", "setting": "VEGFR-2 kinase", "result": "≤ 0.05", "unit": "µM"}]}, {"smiles": "CCOc1ccn(-c2ccc(F)cc2)c(=O)c1C(=O)Nc1ccc(Oc2ccnc3cc(OCCCN(C)C4CCC4)c4c(c23)OCCO4)c(F)c1", "note": "[Example 71, N-(4-((5-(3-(cyclobutyl(methyl)amino)propoxy)-2,3-dihydro-[1,4]dioxino[2,3-f]quinolin-10-yl)oxy)-3-fluorophenyl)-4-ethoxy-1-(4-fluorophenyl)-2-oxo-1,2-dihydropyridine-3-carboxamide]", "values": [{"measurement": "IC50", "setting": "TRKA kinase", "result": "< 0.05", "unit": "µM"}, {"measurement": "IC50", "setting": "MER kinase", "result": "≤ 0.05", "unit": "µM"}, {"measurement": "IC50", "setting": "VEGFR-2 kinase", "result": "≤ 0.05", "unit": "µM"}]}, {"smiles": "CCOc1ccn(-c2ccc(F)cc2)c(=O)c1C(=O)Nc1ccc(Oc2ccnc3cc(OCCCN4CCOCC4)c4c(c23)OCCO4)c(Cl)c1", "note": "[Example 72, N-(4-((5-(3-morpholinopropoxy)-2,3-dihydro-[1,4]dioxino[2,3-f]quinolin-10-yl)oxy)-3-chlorophenyl)-4-ethoxy-1-(4-fluorophenyl)-2-oxo-1,2-dihydropyridine-3-carboxamide]", "values": [{"measurement": "IC50", "setting": "TRKA kinase", "result": "< 0.05", "unit": "µM"}, {"measurement": "IC50", "setting": "MER kinase", "result": "≤ 0.05", "unit": "µM"}, {"measurement": "IC50", "setting": "VEGFR-2 kinase", "result": "≤ 0.05", "unit": "µM"}]}, {"smiles": "CCOc1ccn(-c2ccc(F)cc2)c(=O)c1C(=O)Nc1ccc(Oc2ccnc3cc(OCCCN4CCOCC4)c4c(c23)OCCO4)cc1Cl", "note": "[Example 73, N-(2-chloro-4-((5-(3-morpholinopropoxy)-2,3-dihydro-[1,4]dioxino[2,3-f]quinolin-10-yl)oxy)phenyl)-4-ethoxy-1-(4-fluorophenyl)-2-oxo-1,2-dihydropyridine-3-carboxamide]", "values": [{"measurement": "IC50", "setting": "TRKA kinase", "result": "< 0.05", "unit": "µM"}, {"measurement": "IC50", "setting": "MER kinase", "result": "≤ 0.05", "unit": "µM"}, {"measurement": "IC50", "setting": "VEGFR-2 kinase", "result": "0.05 to 0.5", "unit": "µM"}]}, {"smiles": "CN1CCN(CCCOc2cc3nccc(Oc4ccc(NC(=O)c5cn(C)c(=O)n(-c6ccc(F)cc6)c5=O)cc4F)c3c3c2OCCO3)CC1", "note": "[Example 74, N-(3-fluoro-4-((5-(3-(4-methylpiperazin-1-yl)propoxy)-2,3-dihydro-[1,4]dioxino[2,3-f]quinolin-10-yl)oxy)phenyl)-3-(4-fluorophenyl)-1-methyl-2,4-dioxo-1,2,3,4-tetrahydropyrimidine-5-carboxamide]", "values": [{"measurement": "IC50", "setting": "TRKA kinase", "result": "< 0.05", "unit": "µM"}, {"measurement": "IC50", "setting": "MER kinase", "result": "≤ 0.05", "unit": "µM"}, {"measurement": "IC50", "setting": "VEGFR-2 kinase", "result": "≤ 0.05", "unit": "µM"}]}, {"smiles": "CC(C)n1cc(C(=O)Nc2ccc(Oc3ccnc4cc(OCCCN5CCS(=O)(=O)CC5)c5c(c34)OCCO5)c(F)c2)c(=O)n(-c2ccc(F)cc2)c1=O", "note": "[Example 76, N-(3-fluoro-4-((5-(3-(1,1-dioxidothiomorpholino)propoxy)-2,3-dihydro-[1,4]dioxino[2,3-f]quinolin-10-yl)oxy)phenyl)-3-(4-fluorophenyl)-1-isopropyl-2,4-dioxo-1,2,3,4-tetrahydropyrimidine-5-carboxamide]", "values": [{"measurement": "IC50", "setting": "TRKA kinase", "result": "< 0.05", "unit": "µM"}, {"measurement": "IC50", "setting": "MER kinase", "result": "≤ 0.05", "unit": "µM"}, {"measurement": "IC50", "setting": "VEGFR-2 kinase", "result": "0.5 to 5", "unit": "µM"}]}, {"smiles": "CC(C)n1cc(C(=O)Nc2ccc(Oc3ccnc4cc(OCCCN5CCCC5)c5c(c34)OCCO5)c(F)c2)c(=O)n(-c2ccc(F)cc2)c1=O", "note": "[Example 77, N-(3-fluoro-4-((5-(3-(pyrrolidin-1-yl)propoxy)-2,3-dihydro-[1,4]dioxino[2,3-f]quinolin-10-yl)oxy)phenyl)-3-(4-fluorophenyl)-1-isopropyl-2,4-dioxo-1,2,3,4-tetrahydropyrimidine-5-carboxamide]", "values": [{"measurement": "IC50", "setting": "TRKA kinase", "result": "< 0.05", "unit": "µM"}, {"measurement": "IC50", "setting": "MER kinase", "result": "≤ 0.05", "unit": "µM"}, {"measurement": "IC50", "setting": "VEGFR-2 kinase", "result": "0.05 to 0.5", "unit": "µM"}]}, {"smiles": "CC(C)n1cc(C(=O)Nc2ccc(Oc3ccnc4cc(OCCO)c5c(c34)OCCO5)c(F)c2)c(=O)n(-c2ccc(F)cc2)c1=O", "note": "[Example 78, N-(3-fluoro-4-((5-(2-hydroxyethoxy)-2,3-dihydro-[1,4]dioxino[2,3-f]quinolin-10-yl)oxy)phenyl)-3-(4-fluorophenyl)-1-isopropyl-2,4-dioxo-1,2,3,4-tetrahydropyrimidine-5-carboxamide]", "values": [{"measurement": "IC50", "setting": "TRKA kinase", "result": "< 0.05", "unit": "µM"}, {"measurement": "IC50", "setting": "MER kinase", "result": "≤ 0.05", "unit": "µM"}, {"measurement": "IC50", "setting": "VEGFR-2 kinase", "result": "0.5 to 5", "unit": "µM"}]}, {"smiles": "COCCCOc1cc2nccc(Oc3ccc(NC(=O)c4cn(C)c(=O)n(-c5ccc(F)cc5)c4=O)cc3F)c2c2c1OCCO2", "note": "[Example 80, N-(3-fluoro-4-((5-(3-methoxypropoxy)-2,3-dihydro-[1,4]dioxino[2,3-f]quinolin-10-yl)oxy)phenyl)-3-(4-fluorophenyl)-1-methyl-2,4-dioxo-1,2,3,4-tetrahydropyrimidine-5-carboxamide]", "values": [{"measurement": "IC50", "setting": "TRKA kinase", "result": "< 0.05", "unit": "µM"}, {"measurement": "IC50", "setting": "MER kinase", "result": "≤ 0.05", "unit": "µM"}, {"measurement": "IC50", "setting": "VEGFR-2 kinase", "result": "0.5 to 5", "unit": "µM"}]}, {"smiles": "CC(C)Oc1cc2nccc(Oc3ccc(NC(=O)c4cn(C)c(=O)n(-c5ccc(F)cc5)c4=O)cc3F)c2c2c1OCCO2", "note": "[Example 88, N-(3-fluoro-4-((5-isopropoxy-2,3-dihydro-[1,4]dioxino[2,3-f]quinolin-10-yl)oxy)phenyl)-3-(4-fluorophenyl)-1-methyl-2,4-dioxo-1,2,3,4-tetrahydropyrimidine-5-carboxamide]", "values": [{"measurement": "IC50", "setting": "TRKA kinase", "result": "0.05 to 0.5", "unit": "µM"}, {"measurement": "IC50", "setting": "MER kinase", "result": "≤ 0.05", "unit": "µM"}, {"measurement": "IC50", "setting": "VEGFR-2 kinase", "result": "0.5 to 5", "unit": "µM"}]}, {"smiles": "Cn1cc(C(=O)Nc2ccc(Oc3ccnc4cc(OC5CCOC5)c5c(c34)OCCO5)c(F)c2)c(=O)n(-c2ccc(F)cc2)c1=O", "note": "(stereo not drawn) [Example 90, N-(3-fluoro-4-((5-((tetrahydrofuran-3-yl)oxy)-2,3-dihydro-[1,4]dioxino[2,3-f]quinolin-10-yl)oxy)phenyl)-3-(4-fluorophenyl)-1-methyl-2,4-dioxo-1,2,3,4-tetrahydropyrimidine-5-carboxamide]", "values": [{"measurement": "IC50", "setting": "TRKA kinase", "result": "< 0.05", "unit": "µM"}, {"measurement": "IC50", "setting": "MER kinase", "result": "≤ 0.05", "unit": "µM"}, {"measurement": "IC50", "setting": "VEGFR-2 kinase", "result": "0.05 to 0.5", "unit": "µM"}]}, {"smiles": "Cn1cc(C(=O)Nc2ccc(Oc3ccnc4cc(OC5CCOCC5)c5c(c34)OCCO5)c(F)c2)c(=O)n(-c2ccc(F)cc2)c1=O", "note": "[Example 91, N-(3-fluoro-4-((5-((tetrahydropyran-4-yl)oxy)-2,3-dihydro-[1,4]dioxino[2,3-f]quinolin-10-yl)oxy)phenyl)-3-(4-fluorophenyl)-1-methyl-2,4-dioxo-1,2,3,4-tetrahydropyrimidine-5-carboxamide]", "values": [{"measurement": "IC50", "setting": "TRKA kinase", "result": "< 0.05", "unit": "µM"}, {"measurement": "IC50", "setting": "MER kinase", "result": "≤ 0.05", "unit": "µM"}, {"measurement": "IC50", "setting": "VEGFR-2 kinase", "result": "0.05 to 0.5", "unit": "µM"}]}, {"smiles": "CC(C)n1cc(C(=O)Nc2ccc(Oc3ccnc4cc(OCCCN5CCC(C)(C)CC5)c5c(c34)OCCO5)c(F)c2)c(=O)n(-c2ccc(F)cc2)c1=O", "note": "[Example 92, N-(3-fluoro-4-((5-(3-(4,4-dimethylpiperidin-1-yl)propoxy)-2,3-dihydro-[1,4]dioxino[2,3-f]quinolin-10-yl)oxy)phenyl)-3-(4-fluorophenyl)-1-isopropyl-2,4-dioxo-1,2,3,4-tetrahydropyrimidine-5-carboxamide]", "values": [{"measurement": "IC50", "setting": "TRKA kinase", "result": "< 0.05", "unit": "µM"}, {"measurement": "IC50", "setting": "MER kinase", "result": "≤ 0.05", "unit": "µM"}, {"measurement": "IC50", "setting": "VEGFR-2 kinase", "result": "0.5 to 5", "unit": "µM"}]}, {"smiles": "CC(C)n1cc(C(=O)Nc2ccc(Oc3ccnc4cc(OCCCN5CCC(C)(N)CC5)c5c(c34)OCCO5)c(F)c2)c(=O)n(-c2ccc(F)cc2)c1=O", "note": "[Example 93, N-(3-fluoro-4-((5-(3-(4-amino-4-methylpiperidin-1-yl)propoxy)-2,3-dihydro-[1,4]dioxino[2,3-f]quinolin-10-yl)oxy)phenyl)-3-(4-fluorophenyl)-1-isopropyl-2,4-dioxo-1,2,3,4-tetrahydropyrimidine-5-carboxamide]", "values": [{"measurement": "IC50", "setting": "TRKA kinase", "result": "< 0.05", "unit": "µM"}, {"measurement": "IC50", "setting": "MER kinase", "result": "≤ 0.05", "unit": "µM"}, {"measurement": "IC50", "setting": "VEGFR-2 kinase", "result": "0.05 to 0.5", "unit": "µM"}]}]}
